Test results published in article PMC10064330, “Reversible Dual-Covalent Molecular Locking of the 14-3-3/ERRγ Protein–Protein Interaction as a Molecular Glue Drug Discovery Approach” (Journal of the American Chemical Society, 2023).

Molecular target: T1, 14-3-3γ/ERRγ complex (Homo sapiens, UniProt P61981+P62508)
T1 construct: made in house; host or cells: E. coli NiCo21 (DE3)
Test: FA compound titration in HEK293 cell lysate
Format: binding
Conditions: 2 mg mL^–1 HEK293 cell lysate, 5 μM 14-3-3γ, 100 nM ERRγ peptide; read-out: half-maximal complex concentration (CC50)
Protocol: The cell represents a complex biochemical environment composed of a high reducing potential, a pool of potential nucleophiles, and competing 14-3-3 interaction partners. To investigate molecular lock-induced complex formation in a reactive environment, we first investigated binary 14-3-3/ERRγ formation in the HEK293 cell lysate. Here, the HEK293 cell lysate was titrated to the preformed 14-3-3γ/ERRγ complex in an FA assay and incubated overnight (Figure S25a–c). […] Next, we investigated molecular lock 5-induced complex formation (Figures S25 and S26). […] Moreover, early observed cell lysate-induced abolishment of the 14-3-3γ/ERRγ complex formation was almost completely recovered upon addition of 5, to similar complex concentrations to that in the absence of the lysate. […]
Figure S25. […] (d -e) Fluorescence anisotropy studies of compound 5 (right) titrations or DMSO as negative control (left) to a preformed complex of 14 -3-3γ (5 µM, 0.16 mg/mL) and fluorescein labelled ERRγ peptide (100 nM) at various concentrations HEK293 cell lysate (up to 2 mg/mL). […]
Figure S26. […] Fluorescence anisotropy studies of compound 5 titrations (or DMSO as negative control) to a preformed complex of 14-3-3γ (5 µM) and fluorescein labelled ERRγ peptide (100 nM). Assay is performed in presence of various concentrations HEK293 cell lysate (up to 2 mg/mL) and is measured over time (every hour for 12 hours). […]

T1 sequence (P61981 whole entry, other chains not shown): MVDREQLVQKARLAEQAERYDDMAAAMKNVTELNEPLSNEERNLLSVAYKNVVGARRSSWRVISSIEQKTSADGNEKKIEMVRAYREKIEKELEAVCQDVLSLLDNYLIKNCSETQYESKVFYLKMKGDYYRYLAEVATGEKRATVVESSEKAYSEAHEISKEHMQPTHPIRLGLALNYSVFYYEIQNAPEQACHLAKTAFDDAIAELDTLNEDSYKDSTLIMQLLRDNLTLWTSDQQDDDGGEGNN

Work on `CN(C)CCSSCCN(C)C(=O)c1ccc(C=O)c(F)c1` [compound 5] yielded a CC50 of 240 µM.
